Each structure is given as a SMILES string.

The target in one experiment is T1, human TLR9 (hTLR9) (Homo sapiens, UniProt Q9NR96).
T1 construct: host or cells: HEK293 (HEK-Blue-hTLR9)
T1 sequence (Q9NR96 26-1032): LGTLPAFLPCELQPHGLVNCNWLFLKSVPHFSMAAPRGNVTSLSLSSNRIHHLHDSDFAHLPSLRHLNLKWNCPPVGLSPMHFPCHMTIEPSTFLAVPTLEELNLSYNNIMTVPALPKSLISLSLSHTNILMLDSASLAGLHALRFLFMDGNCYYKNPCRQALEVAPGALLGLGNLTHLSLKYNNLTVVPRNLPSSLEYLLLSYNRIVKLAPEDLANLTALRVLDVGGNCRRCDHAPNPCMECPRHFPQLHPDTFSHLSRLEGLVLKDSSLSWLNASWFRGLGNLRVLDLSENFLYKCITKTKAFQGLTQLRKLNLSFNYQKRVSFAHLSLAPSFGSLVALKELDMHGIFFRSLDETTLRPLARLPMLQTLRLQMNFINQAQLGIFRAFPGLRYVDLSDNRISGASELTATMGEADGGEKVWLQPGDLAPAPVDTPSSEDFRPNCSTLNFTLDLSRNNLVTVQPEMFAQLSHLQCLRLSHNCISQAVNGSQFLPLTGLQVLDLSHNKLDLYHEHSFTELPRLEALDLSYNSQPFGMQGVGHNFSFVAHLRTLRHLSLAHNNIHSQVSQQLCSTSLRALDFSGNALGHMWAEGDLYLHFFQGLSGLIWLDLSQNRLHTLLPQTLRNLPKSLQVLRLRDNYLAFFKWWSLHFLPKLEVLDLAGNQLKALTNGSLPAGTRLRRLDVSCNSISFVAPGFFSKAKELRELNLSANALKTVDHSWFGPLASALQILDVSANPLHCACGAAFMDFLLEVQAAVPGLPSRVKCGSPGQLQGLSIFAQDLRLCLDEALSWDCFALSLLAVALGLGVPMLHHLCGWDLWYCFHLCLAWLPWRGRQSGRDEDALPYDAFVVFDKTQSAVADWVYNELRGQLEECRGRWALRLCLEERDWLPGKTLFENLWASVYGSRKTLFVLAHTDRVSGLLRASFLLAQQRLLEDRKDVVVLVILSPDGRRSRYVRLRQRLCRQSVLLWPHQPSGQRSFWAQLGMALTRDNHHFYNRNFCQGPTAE
Put plainly: TLR9 antagonist assay (HEK-Blue-hTLR9 cells, NF-kB/AP-1 driven SEAP reporter, ODN 2006 agonist). The class given is cell-based. As to conditions: 1 hour compound pre-incubation, then hTLR9 agonist (such as ODN 2006, 1 uM) overnight, SEAP read at 620 nm, 4 parameter Hill fit, read-out: hTLR9 antagonism IC50. The text has this:
HEK-Blue™-hTLR9 cells were obtained from InvivoGen Inc. and used to determine test compound antagonism of human TLR9 (hTLR9) driven responses. HEK-Blue™-hTLR9 cells are designed for studying the stimulation of human TLR9 by monitoring the activation of NF-kB. As described by the manufacturer, “HEK-Blue™-hTLR9 cells were obtained by co-transfection of the hTLR9 gene and an optimized secreted embryonic alkaline phosphatase (SEAP) reporter gene into HEK293 cells. The SEAP reporter gene is placed under the control of the IFN-b minimal promoter fused to five NF-kB and AP-1 binding sites. Stimulation with a TLR9 ligand activates NF-kB and AP-1 which induces the production of SEAP. Levels of SEAP can be easily determined with QUANTI-Blue™ a detection medium that turns purple/blue in the presence of alkaline phosphatase”.
A cell suspension of HEK-Blue™-hTLR9 cells at ˜450,000 cells per ml in test medium which contained 5% (v/v) heat inactivated FBS was prepared. 180 ul of cell suspension (˜80,000 cells) was added per well of a flat-bottom 96-well plate and place in an incubator at 37° C. for overnight.
Test compounds were serially diluted in test medium, generally starting at 10 uM, and diluting by 3 fold in a 96 well master plate. 20 ul of diluted test compound was transferred using a 12 channel multi-channel pipet to the cell plate and incubated at 37° C. for 1 hour. Then 20 ul of an hTLR9 agonist (such as ODN 2006, 1 uM) was added to each well and the plate incubated at 37° C. overnight.
Invivogen's QUANTI-Blue™ was prepared following the manufacturer's instructions. […] of resuspended QUANTI-Blue™ was added per well of a flat bottom 96-well plate. 20 ul per well of induced HEK-Blue™-hTLR9 cells supernatant was then added to the plate and the plate was incubated at 37° C. for 1-3 h. SEAP levels were determined using a spectrophotometer at 620 nm.
The concentration dependent inhibition of hTLR9 dependent SEAP production was expressed as the concentration of compound which produced half the maximal level of SEAP induced by the hTLR agonist alone. Percent activity was calculated for each observation using the formula: % activity=((observed O.D.−background O.D.)/(agonist only O.D.−background O.D.))*100. The 50% inhibitory concentration (IC50) (Table 3) was calculated by using a 4 parameter Hill plot sigmoidal curve fit where the inflection point of the sigmoidal curve is defined as the point of 50% activity.

In another experiment the target is T2, TLR9 (Mus musculus, UniProt Q9EQU3).
T2 construct: Male C57Bl/6J mice, at ˜8 weeks of age from Jackson Laboratories were used; tissue Jackson Laboratories; host or cells: whole animal, male C57Bl/6J mouse
T2 sequence (Q9EQU3 26-1032): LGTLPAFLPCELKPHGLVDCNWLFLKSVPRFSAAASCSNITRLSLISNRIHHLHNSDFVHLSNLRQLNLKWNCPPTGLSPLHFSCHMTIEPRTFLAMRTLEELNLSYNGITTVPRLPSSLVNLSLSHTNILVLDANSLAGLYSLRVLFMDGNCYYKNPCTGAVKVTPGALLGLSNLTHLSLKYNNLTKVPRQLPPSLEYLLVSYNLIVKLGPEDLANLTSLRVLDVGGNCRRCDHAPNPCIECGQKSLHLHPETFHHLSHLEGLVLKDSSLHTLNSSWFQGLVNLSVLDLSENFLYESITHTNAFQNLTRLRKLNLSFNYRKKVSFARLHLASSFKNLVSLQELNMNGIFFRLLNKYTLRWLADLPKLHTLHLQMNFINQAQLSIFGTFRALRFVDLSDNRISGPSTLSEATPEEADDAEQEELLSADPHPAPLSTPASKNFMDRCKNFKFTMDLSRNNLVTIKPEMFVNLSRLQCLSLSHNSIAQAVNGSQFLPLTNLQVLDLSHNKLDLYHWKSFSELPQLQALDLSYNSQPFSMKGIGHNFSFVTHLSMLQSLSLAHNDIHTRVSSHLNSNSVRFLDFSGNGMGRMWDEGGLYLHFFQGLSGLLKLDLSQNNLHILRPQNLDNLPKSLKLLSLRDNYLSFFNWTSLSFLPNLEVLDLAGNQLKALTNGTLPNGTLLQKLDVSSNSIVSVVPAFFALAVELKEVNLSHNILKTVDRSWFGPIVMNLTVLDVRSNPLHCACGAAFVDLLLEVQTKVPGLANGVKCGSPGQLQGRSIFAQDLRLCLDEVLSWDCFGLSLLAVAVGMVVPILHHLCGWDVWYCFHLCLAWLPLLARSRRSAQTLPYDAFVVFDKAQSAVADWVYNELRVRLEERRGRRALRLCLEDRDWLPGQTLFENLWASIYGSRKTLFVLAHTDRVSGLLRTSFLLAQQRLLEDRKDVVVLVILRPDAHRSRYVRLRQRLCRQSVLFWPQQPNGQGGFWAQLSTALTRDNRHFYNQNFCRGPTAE
Put plainly: In vivo TLR antagonism: serum IL-12 after CpG ODN 1668 TLR9 agonist injection, single intraperitoneal dose to male C57Bl/6 mice. Details: species or system C57Bl/6J mouse. As to conditions: male C57Bl/6J mice; test article i.p. at T=0 hr; CpG ODN 1668 i.p. at T=1 hr; serum IL-12 ELISA at T=4 hr; doses 400 ug to 10 ug. The protocol:
The Effects of test articles on Toll-Like Receptor (TLR) Knockdown Following a Single Intraperitoneal Dose to Male C57Bl/6 Mice.
Toll-Like Receptor (TLR) knockdown effect of test articles was evaluated in a C57Bl/6J mouse. Primary end points included a terminal blood collection for analysis of cytokine production in response to CpG-DNA TLR9 agonist injection. Male C57Bl/6J mice, at ˜8 weeks of age from Jackson Laboratories were used. Test groups were 3 mice per treatment group and the groups were administered test article in a series of descending doses within the range of 400 ug to 10 ug. Test article treatment was dosed at T=0 hr by intraperitoneal injection. Agonist (CpG ODN 1668) treatment was dosed one hour later, T=1 hr by intraperitoneal injection. Necropsy was performed 3 hours post agonist treatment, T=4 hr. Blood samples were collected into serum separator tubes, allowed to clot at room temperature for at least 20 minutes, centrifuged at ambient temperature at 3000 g for 10 minutes, and the serum was extracted. ELISA was performed to determine murine IL-12 levels following manufacture's protocol (BioLegend Inc.). Serum IL-12 levels were calculated and plotted versus administered dose of antagonist and inhibitory dose at 50% (ID50) was determined.
(In general: In an ELISA, binding on a coated surface is turned into a signal by an enzyme label.)

On to `CN(C)CCN(C)c1nc2ccccc2c2c1ncn2CCN(C)C` [Compound 67], for which the concentration for half-maximal inhibition (IC50) at human TLR9 (hTLR9) was 143 nM. Besides, at TLR9, the “In vivo TLR antagonism ID50 (inhibitory dose at 50% of serum IL-12)” value was 1262 µg. Regarding `CCOCc1nc2c(N3CCN(C)CC3)nc3ccccc3c2n1CCN(C)C` [Compound 62], the concentration for half-maximal inhibition (IC50) at human TLR9 (hTLR9) is 713 nM.

As for `CCOCc1nc2c(N(C)CCN(C)C)nc3ccccc3c2n1CCN1CCN(C)CC1` [Compound 65], the IC50 on human TLR9 (hTLR9) worked out at 56 nM. For the same compound, the “In vivo TLR antagonism ID50 (inhibitory dose at 50% of serum IL-12)” value on TLR9 came to 67 µg. Turning to `CCOCc1nc2c(N(C)CCN(C)C)nc3ccccc3c2n1CCN1CCOCC1` [Compound 60], at human TLR9 (hTLR9), the half-maximal inhibitory concentration (IC50) came out at 3410 nM. Still for that read-out and setting: as for `CCOCc1nc2c(N3CCN(C)CC3)nc3ccccc3c2n1CCOCCO` [Compound 64], the figure is 6690 nM. Still for that read-out and setting: under `CCOCc1nc2c(N3CCN(C)CC3)nc3ccccc3c2n1CCN1CCN(C)CC1` [Compound 66] stands 323 nM. As for `CN(C)CCN(C)c1nc2ccccc2c2c1nc(O)n2CCN(C)C` [Compound 68], the IC50 on human TLR9 (hTLR9) turned out to be 136 nM. In addition, at TLR9, the “In vivo TLR antagonism ID50 (inhibitory dose at 50% of serum IL-12)” value came out at 280 µg.

Consider `CN(C)CCN(C)c1nc2ccccc2c2c1nc(O)n2CCc1c[nH]cn1` [Compound 69], for which, on human TLR9 (hTLR9), the IC50 came out at 1650 nM. On the same count and under the same terms, as for `CCOCc1nc2c(N(C)CCN(C)C)nc3ccccc3c2n1CCN(C)C` [Compound 61], the figure is 389 nM. Still for that read-out and setting: under `CCOCc1nc2c(N(C)CCN(C)C)nc3ccccc3c2n1CCOCCO` [Compound 63] stands 3350 nM.

In general, IC50 refers to the concentration at which inhibition is half-maximal.

The values are drawn from patent US9873694B2, “Imidazole quinoline-based immune system modulators” (Janus Biotherapeutics, Inc., priority 2011, dated 2018).
